Assay results from patent EP4810009A1, “MELANOGENESIS INHIBITOR AND EXTERNAL PREPARATION FOR SKIN CONTAINING SAME” (MITSUBISHI GAS CHEMICAL COMPANY, INC., priority 2023, dated 2025).

How the values were obtained:
[1] = test system: Cutibacterium acnes NBRC 107605; experiment: Ability to eliminate acne bacteria; assay type: cell-based; conditions: 0.05 mL of aqueous solution of 7% by weight of organic acid added to 5 mL test solution; viable cell count after 60 seconds
Protocol: 0.05 mL of an aqueous solution of 7% by weight of organic acid was added dropwise to 5 mL of a test solution containing the bacterial strain Cutibacterium acnes NBRC 107605 at a concentration of 10^8 CFU/mL. After 60 seconds, if the viable cell count was less than 1%, it was evaluated as A; if the viable cell count was 1% or more, it was evaluated as B. [Table 10]

pig skin = experiment: Chemical peeling ability; conditions: aqueous solution of 7% by weight of organic acid on pig skin for 24 hours; decrease of stratum corneum thickness
Protocol: An aqueous solution of 7% by weight of organic acid was allowed to act on to pig skin for 24 hours. If the thickness of the stratum corneum decreased by 10% or more, it was evaluated as A; if it decreased by less than 10%, it was evaluated as B.

[2] = Solubility in oils (saturated solubility of oleic acid in organic acid solution); assay type: physicochemical; conditions: oleic acid in aqueous solution of 50% by weight of organic acid; room temperature (23°C), 24 hours
Protocol: Oleic acid was added into an aqueous solution of 50% by weight of organic acid, and the mixed solution was then stirred at room temperature (23°C) for 24 hours.

[3] = Solubility in oils and fats (saturated solubility of palmitic acid in organic acid solution); assay type: physicochemical; conditions: palmitic acid in aqueous solution of 50% by weight of organic acid; room temperature (23°C), 24 hours
Protocol: Palmitic acid was added into an aqueous solution of 50% by weight of organic acid, and the mixed solution was then stirred at room temperature (23°C) for 24 hours.

tyrosinase = experiment: Tyrosinase biosynthesis inhibitory action test (DOPA-melanin per unit protein in cell lysate); assay type: cell-based; conditions: normal human melanocytes; 2.5, 5, 10, 20, and 40 mM; one day of culture; Figure 3
Protocol: (§1) Normal human melanocytes (manufactured by Kurabo Industries, Ltd.) were used as melanin-producing cells. As a medium for the cells, Dermalife (manufactured by Kurabo Industries, Ltd.) was used. The cell concentration was adjusted to 3 x 10^4 cells/mL, and the cells were cultured in a 96-well plate in the presence of 5% carbon dioxide at 37°C for 24 hours.
(§2) As a test sample, NaOH was added to methyl lactic acid to adjust the pH to 6.5, and was used. […]. As a control, Dermalife, into which methyl lactic acid was not added, was used.
The medium was removed from the culture obtained under the aforementioned cell culture conditions and replaced with the test sample. After one day of culture, the medium was removed, and a phosphate buffer containing 0.5% Triton X-100 was added in an amount of 50 µL/well. The cells were lysed by agitation. 50 µL of the cell lysate was mixed with 50 µL of phosphate buffer containing 2 mM DOPA, and the obtained mixture was then incubated at 37°C for 2 hours. The absorbance (measurement wavelength: 405 nm, reference wavelength: 650 nm) was measured, and the amount of DOPA-melanin was calculated from a calibration curve. The amount of the protein was quantified using a BCA protein assay kit (Thermo), and the amount of DOPA-melanin per unit protein was then calculated to confirm tyrosinase biosynthesis inhibitory action. […]

B16 melanoma [4] = experiment: Evaluation of melanin production inhibitory activity; assay type: cell-based, mouse; conditions: 100 µM methyl lactic acid, pH 6.5 with NaOH; one day of culture; compared with kojic acid 1 mM positive control; Figure 1
Protocol: As melanin-producing cells, mouse-derived skin melanoma cells, B16 melanoma (JCRB0202, purchased from JCRB Cell Bank) were used. As a medium for cell culture, 500 mL of E-MEM medium was mixed with 5 mL of x 100 penicillin-streptomycin solution and 100 mL of inactivated fetal bovine serum (manufactured by West Bio), and the resulting medium was used. For the subculture of cells, the cells were washed with a phosphate buffer (manufactured by GIBCO), and were detached from the vessel with 0.25% trypsin and EDTA (ethylenediaminetetraacetic acid), followed by addition of a medium, and the obtained mixture was centrifugated to separate the cels. To ensure stable cell culture, the cell concentration was adjusted to 5 to 16 x 10^4 cells/mL, and the cells were then cultured in a 10-cm petri dish or a plastic culture flask (175 cm^2) in the presence of 5% carbon dioxide at 37°C. […] The absorbance at 450 nm was measured using a plate reader, and the melanin concentration was calculated. […] The melanin production percentage (%) shown in Figure 1 is a relative value (%) in a case where the melanin concentration in the negative control is taken as 100%, and for each case, it is an average value of the values measured for 12 samples.

tyrosinase protein = experiment: Tyrosinase protein expression inhibition test (Western blot); assay type: cell-based; conditions: normal human melanocytes; 20 mM; 48 hours; Figure 4
Protocol: as §1, with “Industries” for “Industries,”, “Dermalife” for “Dermalife (manufactured by Kurabo Industries, Ltd.)”, “10^5 cells/1.5 mL,” for “10^4 cells/mL,”, “6-well” for “96-well”
as §2
The medium was replaced with the test sample (1.5 mL/well) and cultured for 48 hours. After removing the medium, proteins were extracted using M-PER™ Mammalian Protein Extraction Reagent (manufactured by Themo), and were then developed by SDS-PAGE. After the resultant had been transferred onto a polyvinylidene difluoride (PVDF) membrane, the membrane was blocked with 5% skim milk. After a reaction had been performed with an anti-tyrosinase antibody (manufactured by Santa Cruz Biotechnology) for 1 hour, the membrane was further reacted with an HRP-conjugated secondary antibody (manufactured by abcam) for an additional 1 hour. Protein bands were detected using Ez West Blue W (manufactured by ATTO). The signal intensity of the resulting bands was detected using the image processing software ImageJ, and the relative protein expression levels were calculated. […]

tyrosinase mRNA = experiment: Evaluation of suppression of melanin synthesis-related factor mRNA expression (Real-time PCR); assay type: cell-based; conditions: normal human melanocytes; 10 and 20 mM; 24 hours; Figure 5
Protocol: Normal human melanocytes (manufactured by Kurabo Industries, Ltd.) were used as melanin-producing cells. As a medium for the cells, […] was used. The cell concentration was adjusted to 3 x 10^4 cells/mL, and the cells were cultured in a 96-well plate in the presence of 5% carbon dioxide at 37°C for 24 hours. As a test sample, NaOH was added to methyl lactic acid to adjust the pH to 6.5, and was used. […] As a control, […], into which methyl lactic acid was not added, was used. The medium was replaced with the test sample (100 μL/well) and cultured for 24 hours. After removing the medium, RNA was extracted using Cells-to-Ct kit (manufactured by Themo), and was then subjected to reverse transcription to synthesize cDNA. Using the resulting cDNA, Real-time PCR was carried out, and the relative expression level of mRNA was calculated. In Figure 5, "Control" is a negative control, which uses a medium without the test sample.

B16 melanoma [5] = experiment: Cytotoxicity test (Cell counting Kit 8); assay type: cell-based, mouse; conditions: 100 µM methyl lactic acid, one day of culture, Figure 2
Protocol: Cell culture was performed by the same method as that in Example 1 mentioned above.
The test sample was prepared by the same method as that in Example 1 mentioned above.
Cells were detached from the culture obtained under the cell culture conditions described in Example 1, and 0.1 mL of cells and medium were each seeded into a 96-well vessel to a cell concentration of 5 x 10^4 cells/mL. After one day of culture, the medium was removed and replaced with the test sample. After one further day of culture, the vessel was washed with an assay medium, and 0.1 mL each of a 1 : 9 mixed solution of Cell counting Kit 8 and medium was added. After the mixture had been left at rest at 37°C for 30 minutes in the presence of 5% carbon dioxide, the absorbance at 450 nm was measured using a plate reader, and the cell count was calculated.
The cell count (%) is a relative value (%) in a case where the cell count in the negative control (medium alone) is taken as 100%, and for each case, it is an average value of the values measured for 16 samples.

O=C(O)CO [Glvcolic acid]
Ability to eliminate acne bacteria [1]: A (if the viable cell count was less than 1%, it was evaluated as A)
Chemical peeling ability (pig skin): A (If the thickness of the stratum corneum decreased by 10% or more, it was evaluated as A)

CC(O)C(=O)O (centres unmarked) [Lactic acid]
Ability to eliminate acne bacteria [1]: A (if the viable cell count was less than 1%, it was evaluated as A)
Chemical peeling ability (pig skin): A (If the thickness of the stratum corneum decreased by 10% or more, it was evaluated as A)

O=c1cc(CO)occ1O [Kojic acid, reference compound]
Ability to eliminate acne bacteria [1]: B (if the viable cell count was 1% or more, it was evaluated as B)
Chemical peeling ability (pig skin): B (if it decreased by less than 10%, it was evaluated as B)
Solubility in oils [2]: B (if it was less than 200 ppm, it was evaluated as B)
Solubility in oils and fats [3]: B (if it was less than 20 ppm, it was evaluated as B)

CC(C)(O)C(=O)O [Methyl lactic acid, 2-hydroxyisobutyric acid]
Ability to eliminate acne bacteria [1]: A (if the viable cell count was less than 1%, it was evaluated as A)
tyrosinase biosynthesis inhibitory action (DOPA-melanin per unit protein) (tyrosinase): a tyrosinase biosynthesis inhibitory action was exhibited in a dose-dependent manner
melanogenesis-inhibiting effect (melanin production percentage) (B16 melanoma [4]): the same melanogenesis-inhibiting effect as the addition of kojic acid
tyrosinase protein expression inhibitory action (relative expression level of tyrosinase protein) (tyrosinase protein): a tyrosinase protein expression inhibitory action was exhibited
tyrosinase mRNA expression-suppressing action (relative expression level of tyrosinase mRNA) (tyrosinase mRNA): exhibited a tyrosinase mRNA expression-suppressing action
Chemical peeling ability (pig skin): A (If the thickness of the stratum corneum decreased by 10% or more, it was evaluated as A)
Solubility in oils [2]: A (if the saturated solubility of oleic acid was 200 ppm or more, it was evaluated as A)
cytotoxicity (cell count) (B16 melanoma [5]): cytotoxicity was not confirmed
Solubility in oils and fats [3]: A (if the saturated solubility of palmitic acid was 20 ppm or more, it was evaluated as A)
